One block for each compound: values may come before it. Square brackets hold non-standard residues; d marks the D form. Peptide text beside a SMILES is read from it. Bpa = N[C@@H](Cc1ccc(C(=O)c2ccccc2)cc1)C(=O)O; Nle = CCCC[C@H](N)C(=O)O
Target: T1, GRF receptors ([^125 I-Tyr^10 ]hGRF(1-44)NH2 binding sites in rat adenopituitary) (Rattus norvegicus, UniProt Q02644)
T1 construct: from tissue; host or cells: rat anterior pituitary homogenate
T1 sequence (Q02644 23-423 isoform Q02644-2 limits assumed): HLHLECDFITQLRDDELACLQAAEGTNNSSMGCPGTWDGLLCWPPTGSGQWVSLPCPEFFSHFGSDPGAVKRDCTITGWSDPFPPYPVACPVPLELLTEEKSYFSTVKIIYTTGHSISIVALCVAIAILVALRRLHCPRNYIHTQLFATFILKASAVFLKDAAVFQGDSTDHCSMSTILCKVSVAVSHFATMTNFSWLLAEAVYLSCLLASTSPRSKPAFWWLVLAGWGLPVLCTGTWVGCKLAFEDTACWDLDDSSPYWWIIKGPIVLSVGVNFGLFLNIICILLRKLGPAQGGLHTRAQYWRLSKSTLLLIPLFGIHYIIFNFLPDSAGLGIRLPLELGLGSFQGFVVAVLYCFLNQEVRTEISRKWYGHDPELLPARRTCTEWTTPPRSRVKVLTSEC
Assay: Competitive binding assay with [^125 I-Tyr^10 ]hGRF(1-44)NH2 on anterior pituitary homogenates
Settings: for Relative affinity: ratio IC50 of hGRF(1-29)NH2 /IC50 analogue; for biological activity compared to that of native GRF: rat adenopituitary
Method: The binding of [^125 I-Tyr^10 ]hGRF(1-44)NH2 was performed on anterior pituitary homogenates as previously described (Gaudreau P. et al., J. Biol. Chem., 1992, 35:1864-1869). Briefly, anterior pituitaries (pit.) were dissected out, rinsed and homogenized for 8 sec with a Micro Ultrasonic Cell Disrupter™, in ice-cold 50 mM Tris-HCl buffer, pH 7.4, containing 5 mM MgCl2 and 5 mM EDTA (1 pit./0.5 ml). These homogenates were used immediately. Competition studies were performed using 35-50 pM [^125 I-Tyr^10 ]hGRF(1-44)NH2 as radio-ligand,50 μl of homogenate (70 to 75 μg of protein), and increasing concentrations of Nε-CF-[Lys^31 ]hGRF or other GRF analogues (0-1000 nM) or with 2.4 μM rGRF(1-29)NH2 for determination of non-specific binding, in a total volume of 300 μl of Tris-HCl buffer, pH 7.4, containing 5 mM EDTA, 5 mM MgCl2 and 0.42% BSA. Incubations were carried out at 23° C. for 60 min and stopped by centrifugation (12,000 g, 5 min, at 4° C.). The radioactivity content in the pellet was measured by gamma counting. The affinity of hGRF(1-29)NH2 was tested in each experiment to assess the validity of the assay and determine the relative affinity of the analogues. […] The Hill values indicate that all these peptides bind to the high and low affinity GRF binding sites found in the anterior pituitary.

[1] = Table 11, mean±SD of 2 or mean±SE of 3 experiments for analogues, mean±SE of 11 for hGRF(1-29)NH2

Structure (SMILES): CCCC[C@H](NC(=O)[C@@H](NC(=O)[C@H](CC(=O)O)NC(=O)[C@H](CCC(N)=O)NC(=O)[C@H](CC(C)C)NC(=O)[C@H](CC(C)C)NC(=O)[C@H](CCCCN)NC(=O)[C@H](CCCNC(=N)N)NC(=O)[C@H](C)NC(=O)[C@H](CO)NC(=O)[C@H](CC(C)C)NC(=O)[C@H](CCC(N)=O)NC(=O)CNC(=O)[C@H](CC(C)C)NC(=O)[C@@H](NC(=O)[C@H](CCCCN)NC(=O)[C@H](CCCNC(=N)N)NC(=O)[C@H](Cc1ccc(O)cc1)NC(=O)[C@H](Cc1ccc(C(=O)c2ccccc2)cc1)NC(=O)[C@H](CC(N)=O)NC(=O)[C@@H](NC(=O)[C@H](Cc1ccccc1)NC(=O)[C@@H](NC(=O)[C@H](C)NC(=O)[C@H](CC(=O)O)NC(=O)[C@H](C)NC(=O)[C@@H](N)Cc1c[nH]cn1)[C@@H](C)CC)[C@@H](C)O)C(C)C)[C@@H](C)CC)C(=O)N[C@@H](CO)C(=O)N[C@@H](CCCNC(=N)N)C(N)=O [His^1, bpa^9, Nle^27] (H-HADAIFTN[Bpa]YRKVLGQLSARKLLQDI[Nle]SR-NH2)
Hill coef. (Table 7): 0.70 ± 0.06 | Relative affinity (Table 7): 61.0 ± 7%

Structure (SMILES): CC[C@H](C)[C@H](NC(=O)[C@H](C)NC(=O)[C@H](CC(=O)O)NC(=O)[C@H](C)NC(=O)[C@H](Cc1ccc(O)cc1)NC(=S)Nc1ccc(-c2c3ccc(=O)cc-3oc3cc(O)ccc23)c(C(=O)O)c1)C(=O)N[C@@H](Cc1ccccc1)C(=O)N[C@H](C(=O)N[C@@H](CC(N)=O)C(=O)N[C@@H](CO)C(=O)N[C@@H](Cc1ccc(O)cc1)C(=O)N[C@@H](CCCNC(=N)N)C(=O)N[C@@H](CCCCN)C(=O)N[C@H](C(=O)N[C@@H](CC(C)C)C(=O)NCC(=O)N[C@@H](CCC(N)=O)C(=O)N[C@@H](CC(C)C)C(=O)N[C@@H](CO)C(=O)N[C@@H](C)C(=O)N[C@@H](CCCNC(=N)N)C(=O)N[C@@H](CCCCN)C(=O)N[C@@H](CC(C)C)C(=O)N[C@@H](CC(C)C)C(=O)N[C@@H](CCC(N)=O)C(=O)N[C@@H](CC(=O)O)C(=O)N[C@H](C(=O)N[C@@H](CCSC)C(=O)N[C@@H](CO)C(=O)N[C@@H](CCCNC(=N)N)C(N)=O)[C@@H](C)CC)C(C)C)[C@@H](C)O [[Nα-fluorescein-5-thiocarbamyl]hGRF(1-29)NH2]
Hill coef. (Table 4): 0.61 ± 0.05 | Relative affinity (Table 4): 19 ± 11%

Structure (SMILES): CC[C@H](C)[C@H](NC(=O)[C@H](C)NC(=O)[C@H](CC(=O)O)NC(=O)[C@H](C)NC(=O)[C@H](Cc1ccc(O)cc1)NC(=S)Nc1ccc2c(c1)C(=O)OC21c2ccc(O)cc2Oc2cc(O)ccc21)C(=O)N[C@@H](Cc1ccccc1)C(=O)N[C@H](C(=O)N[C@@H](CC(N)=O)C(=O)N[C@@H](CO)C(=O)N[C@@H](Cc1ccc(O)cc1)C(=O)N[C@@H](CCCNC(=N)N)C(=O)N[C@@H](CCCCN)C(=O)N[C@H](C(=O)N[C@@H](CC(C)C)C(=O)NCC(=O)N[C@@H](CCC(N)=O)C(=O)N[C@@H](CC(C)C)C(=O)N[C@@H](CO)C(=O)N[C@@H](C)C(=O)N[C@@H](CCCNC(=N)N)C(=O)N[C@@H](CCCCN)C(=O)N[C@@H](CC(C)C)C(=O)N[C@@H](CC(C)C)C(=O)N[C@@H](CCC(N)=O)C(=O)N[C@@H](CC(=O)O)C(=O)N[C@H](C(=O)N[C@@H](CCSC)C(=O)N[C@@H](CO)C(=O)N[C@@H](CCCNC(=N)N)C(=O)N[C@@H](CCC(N)=O)C(=O)N[C@@H](CCC(N)=O)C(=O)NCC(=O)N[C@@H](CCC(=O)O)C(=O)N[C@@H](CO)C(=O)N[C@@H](CC(N)=O)C(=O)N[C@@H](CCC(N)=O)C(=O)N[C@@H](CCC(=O)O)C(=O)N[C@@H](CCCNC(=N)N)C(=O)NCC(=O)N[C@@H](C)C(=O)N[C@@H](CCCNC(=N)N)C(=O)N[C@@H](C)C(=O)N[C@@H](CCCNC(=N)N)C(=O)N[C@@H](CC(C)C)C(N)=O)[C@@H](C)CC)C(C)C)[C@@H](C)O [[Nα-fluorescein-5-thiocarbamyl]hGRF(1-44)NH2]
affinity for adenopituitary GRF receptors (in words): nanomolar affinity | Hill coef. (Table 4): 0.63 ± 0.07 | IC50 (Table 4, mean±SD of 2 experiments in triplicate for analogues, mean±SE of 29 experiments for hGRF(1-29)NH2): 14 ± 4 nM | Relative affinity (Table 4): 19 ± 5%

Second part, the compound after the results:

Hill coef. (Table 11): 0.64 ± 0.05 | Relative affinity (Table 11): 21 ± 11% | biological activity compared to that of native GRF: preserved or increased
Structure (SMILES): CC[C@H](C)[C@H](NC(=O)[C@H](C)NC(=O)[C@H](CC(=O)O)NC(=O)[C@@H](C)NC(=O)[C@@H](N)Cc1ccc(O)cc1)C(=O)N[C@@H](Cc1ccccc1)C(=O)N[C@H](C(=O)N[C@@H](CC(N)=O)C(=O)N[C@@H](CO)C(=O)N[C@H](Cc1ccc(O)cc1)C(=O)N[C@@H](CCCNC(=N)N)C(=O)N[C@@H](CCCCN)C(=O)N[C@H](C(=O)N[C@@H](CC(C)C)C(=O)NCC(=O)N[C@@H](CCC(N)=O)C(=O)N[C@@H](CC(C)C)C(=O)N[C@@H](CO)C(=O)N[C@@H](C)C(=O)N[C@@H](CCCNC(=N)N)C(=O)N[C@H](CCCCN)C(=O)N[C@@H](CC(C)C)C(=O)N[C@@H](CC(C)C)C(=O)N[C@@H](CCC(N)=O)C(=O)N[C@@H](CC(=O)O)C(=O)N[C@H](C(=O)N[C@@H](CCSC)C(=O)N[C@@H](CO)C(=O)N[C@@H](CCCNC(=N)N)C(N)=O)[C@@H](C)CC)C(C)C)[C@@H](C)O [D-Ala^2, D-Tyr^10, D-Lys^21]

IC50 [1]: 0.49 ± 0.27 nM
Structure (SMILES): CC[C@H](C)[C@H](NC(=O)[C@H](C)NC(=O)[C@H](CC(=O)O)NC(=O)[C@@H](C)NC(=O)[C@@H](N)Cc1ccc(O)cc1)C(=O)N[C@@H](Cc1ccccc1)C(=O)N[C@H](C(=O)N[C@@H](CC(N)=O)C(=O)N[C@@H](CO)C(=O)N[C@H](Cc1ccc(O)cc1)C(=O)N[C@@H](CCCNC(=N)N)C(=O)N[C@@H](CCCCN)C(=O)N[C@H](C(=O)N[C@@H](CC(C)C)C(=O)NCC(=O)N[C@@H](CCC(N)=O)C(=O)N[C@@H](CC(C)C)C(=O)N[C@@H](CO)C(=O)N[C@@H](C)C(=O)N[C@@H](CCCNC(=N)N)C(=O)N[C@@H](CCCCN)C(=O)N[C@@H](CCCCN)C(=O)N[C@@H](CC(C)C)C(=O)N[C@@H](CCC(N)=O)C(=O)N[C@@H](CC(=O)O)C(=O)N[C@H](C(=O)N[C@@H](CCSC)C(=O)N[C@@H](CO)C(=O)N[C@@H](CCCNC(=N)N)C(N)=O)[C@@H](C)CC)C(C)C)[C@@H](C)O [D-Ala^2, D-Tyr^10, Lys^22] (H-Y[dA]DAIFTNS[dY]RKVLGQLSARKKLQDIMSR-NH2)

Hill coef. (Table 11): 0.41 ± 0.02 | Relative affinity (Table 11): 25 ± 3% | biological activity compared to that of native GRF: preserved or increased
Structure (SMILES): CC[C@H](C)[C@H](NC(=O)[C@H](C)NC(=O)[C@H](CC(=O)O)NC(=O)[C@@H](C)NC(=O)[C@@H](N)Cc1ccc(O)cc1)C(=O)N[C@@H](Cc1ccccc1)C(=O)N[C@H](C(=O)N[C@@H](CC(N)=O)C(=O)N[C@@H](CO)C(=O)N[C@H](Cc1ccc(O)cc1)C(=O)N[C@@H](CCCNC(=N)N)C(=O)N[C@@H](CCCCN)C(=O)N[C@H](C(=O)N[C@@H](CC(C)C)C(=O)NCC(=O)N[C@@H](CCC(N)=O)C(=O)N[C@@H](CC(C)C)C(=O)N[C@@H](CO)C(=O)N[C@@H](C)C(=O)N[C@@H](CCCNC(=N)N)C(=O)N[C@@H](CCCCN)C(=O)N[C@@H](CC(C)C)C(=O)N[C@@H](CC(C)C)C(=O)N[C@@H](CCC(N)=O)C(=O)N[C@@H](CC(=O)O)C(=O)N[C@H](C(=O)N[C@@H](CCSC)C(=O)N[C@@H](CO)C(=O)N[C@@H](CCCNC(=N)N)C(N)=O)[C@@H](C)CC)C(C)C)[C@@H](C)O [D-Ala^2, D-Tyr^10]

IC50 [1]: 6.84 ± 2.12 nM
Structure (SMILES): CC[C@H](C)[C@H](NC(=O)[C@H](C)NC(=O)[C@H](CC(=O)O)NC(=O)[C@H](C)NC(=O)[C@@H](N)Cc1ccc(O)cc1)C(=O)N[C@@H](Cc1ccccc1)C(=O)N[C@H](C(=O)N[C@@H](CC(N)=O)C(=O)N[C@@H](CO)C(=O)N[C@@H](Cc1ccc(O)cc1)C(=O)N[C@@H](CCCNC(=N)N)C(=O)N[C@@H](CCCCN)C(=O)N[C@H](C(=O)N[C@@H](CC(C)C)C(=O)NCC(=O)N[C@@H](CCC(N)=O)C(=O)N[C@@H](CC(C)C)C(=O)N[C@@H](CO)C(=O)N[C@@H](C)C(=O)N[C@@H](CCCNC(=N)N)C(=O)N[C@@H](CCCCN)C(=O)N[C@@H](CC(C)C)C(=O)N[C@@H](CC(C)C)C(=O)N[C@@H](CCC(N)=O)C(=O)N[C@@H](CC(=O)O)C(=O)N[C@H](C(=O)N[C@@H](CCSC)C(=O)N[C@@H](CO)C(=O)N[C@@H](CCCNC(=N)N)C(=O)NCCCCCCCC(=O)N[C@@H](CS)C(N)=O)[C@@H](C)CC)C(C)C)[C@@H](C)O [Octanoyl^30, Cys^31, [octanoyl^30,Cys^31] hGRF(1-29)NH2]

Source: US5854216A, “Marker for growth hormone-releasing factor receptors” (Universite de Montreal, priority 1996, dated 1998)
